Data on 12 compounds can be found in patent US11345666B2, “Phenyl and pyridinyl substituted imidazoles as modulators of RORγT” (Janssen Pharmaceutica NV, priority 2018, dated 2022).

pKd: −log10 of the molar value.

Chain of human RORγt ligand binding domain (RORγt LBD) (P51449 other isoform, or with tags, fused parts or gaps): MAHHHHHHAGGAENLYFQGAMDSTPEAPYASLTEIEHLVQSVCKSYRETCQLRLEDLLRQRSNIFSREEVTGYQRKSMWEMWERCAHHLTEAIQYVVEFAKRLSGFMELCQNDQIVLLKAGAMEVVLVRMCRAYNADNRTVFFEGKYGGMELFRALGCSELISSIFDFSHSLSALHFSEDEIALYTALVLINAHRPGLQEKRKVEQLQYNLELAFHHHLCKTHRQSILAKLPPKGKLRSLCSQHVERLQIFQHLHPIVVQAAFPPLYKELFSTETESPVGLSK

The test concerns the target human RORγt ligand binding domain (RORγt LBD) (Homo sapiens (Human), UniProt P51449). Description: RORγt ThermoFluor assay. The procedure, abridged: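 Thermal shift of His-tagged human RORγt LBD (0.065 mg/mL) with 60 μM 1,8-ANS in 100 mM Hepes pH 7.0, 10 mM NaCl, 2.5 mM GSH, 0.002% Tween-20, heated at 1° C./min. Compounds in 1:2 series from a 10 mM DMSO stock; KD estimated from ΔTm using protein unfolding thermodynamics.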
In turn, `CCc1nc(C(=O)NC[C@H]2CC[C@H](S(C)(=O)=O)CC2)c(C)n1-c1ccc(CC(C)C(F)(F)F)cc1OC` (single isomer, unassigned) [Example 7] had a pKd of 9.00. As for `CCc1nc(C(=O)NC[C@]2(O)CC[C@@H](S(C)(=O)=O)CC2)c(C)n1-c1ccc(CC(C(F)(F)F)C(F)(F)F)cc1F` [Example 109, 2-Ethyl-1-(2-fluoro-4-(3,3,3-trifluoro-2-(trifluoromethyl)propyl)phenyl)-N-(((1s,4s)-1-hydroxy-4-(methylsulfonyl)cyclohexyl)methyl)-5-methyl-1H-imidazole-4-carboxamide], the figure is 8.19; as for `CCc1nc(C(=O)NC[C@H]2CC[C@H](S(C)(=O)=O)CC2)c(Cl)n1-c1ccc(CCC(F)(F)F)cc1F` [Example 22, 5-Chloro-2-ethyl-1-(2-fluoro-4-(3,3,3-trifluoropropyl)phenyl)-N-(((1r,4r)-4-(methylsulfonyl)cyclohexyl)methyl)-1H-imidazole-4-carboxamide], 7.70. As for `CCc1nc(C(=O)NC[C@H]2CC[C@H](S(C)(=O)=O)CC2)c(Cl)n1-c1ncc(CC(C)(C)C(F)(F)F)cc1OC(F)F` [Example 2, 5-Chloro-1-(3-(difluoromethoxy)-5-(3,3,3-trifluoro-2,2-dimethylpropyl)pyridin-2-yl)-2-ethyl-N-((4-(methylsulfonyl)cyclohexyl)methyl)-1H-imidazole-4-carboxamide], the figure is 8.62.

As for `CCc1nc(C(=O)NC[C@H]2CC[C@H](S(C)(=O)=O)CC2)c(Cl)n1-c1ccc(CC(C)C(F)(F)F)cc1OC` (single isomer, unassigned) [Example 6, 5-Chloro-2-ethyl-1-((1S*)-2-methoxy-4-(3,3,3-trifluoro-2-methylpropyl)phenyl)-N-(((1r,4S)-4-(methylsulfonyl)cyclohexyl)methyl)-1H-imidazole-4-carboxamide], the pKd is 9.77.

`CCc1nc(C(=O)NC[C@]2(O)CC[C@@H](S(C)(=O)=O)CC2)c(Cl)n1-c1ccc(CC(C(F)(F)F)C(F)(F)F)cc1F` [Example 100, 5-Chloro-2-ethyl-1-(2-fluoro-4-(3,3,3-trifluoro-2-(trifluoromethyl)propyl)phenyl)-N-(((1s,4s)-1-hydroxy-4-(methylsulfonyl)cyclohexyl)methyl)-1H-imidazole-4-carboxamide] gave a pKd of 8.68.

`CCc1nc(C(=O)NC[C@H]2CC[C@H](S(C)(=O)=O)CC2)c(C#N)n1-c1ccc(CC(C)(C)C(F)(F)F)cc1OC(F)F` [Example 36, 5-Cyano-1-(2-(difluoromethoxy)-4-(3,3,3-trifluoro-2,2-dimethylpropyl)phenyl)-2-ethyl-N-(((1r,4r)-4-(methylsulfonyl)cyclohexyl)methyl)-1H-imidazole-4-carboxamide] showed a pKd of 8.80. Next, `[2H]C([2H])([2H])Oc1cc(CC(C)(C)C(F)(F)F)ccc1-n1c(CC)nc(C(=O)NC[C@H]2CC[C@H](S(C)(=O)=O)CC2)c1C#N` [Example 27, 5-Cyano-2-ethyl-1-(2-(methoxy-d3)-4-(3,3,3-trifluoro-2,2-dimethylpropyl)phenyl)-N-(((1r,4r)-4-(methylsulfonyl)cyclohexyl)methyl)-1H-imidazole-4-carboxamide]: 9.12.

Compound `CCc1nc(C(=O)NC[C@H]2CC[C@H](S(C)(=O)=O)CC2)c(F)n1-c1ccc(N[C@H](C)C(F)(F)F)cc1OC` [Example 12, 2-Ethyl-5-fluoro-1-(2-methoxy-4-(((R)-1,1,1-trifluoropropan-2-yl)amino)phenyl)-N-(((1r,4R)-4-(methylsulfonyl)cyclohexyl)methyl)-1H-imidazole-4-carboxamide] had a pKd of 7.92. In turn, `CCc1nc(C(=O)NC[C@]2(O)CC[C@@H](S(C)(=O)=O)CC2)c(Cl)n1-c1c(F)cc(CC(C)C)cc1F` [Example 83, 5-Chloro-1-(2,6-difluoro-4-isobutylphenyl)-2-ethyl-N-(((1s,4s)-1-hydroxy-4-(methylsulfonyl)cyclohexyl)methyl)-1H-imidazole-4-carboxamide] had a pKd of 8.59. As for `CCc1nc(C(=O)NC[C@H]2CC[C@H](S(C)(=O)=O)CC2)c(Cl)n1-c1ccc(N[C@H](C)C(F)(F)F)cc1OC` [Example 3, 5-Chloro-2-ethyl-1-(2-methoxy-4-(((R)-1,1,1-trifluoropropan-2-yl)amino)phenyl)-N-(((1r,4R)-4-(methylsulfonyl)cyclohexyl)methyl)-1H-imidazole-4-carboxamide], the figure is 8.46. As for `CCc1nc(C(=O)NC[C@]2(O)CC[C@@H](S(C)(=O)=O)CC2)c(C#N)n1-c1ccc(CC(C)(C)C(F)(F)F)cc1OC(F)(F)F` [Example 111, 5-Cyano-2-ethyl-N-(((1s,4s)-1-hydroxy-4-(methylsulfonyl)cyclohexyl)methyl)-1-(4-(3,3,3-trifluoro-2,2-dimethylpropyl)-2-(trifluoromethoxy)phenyl)-1H-imidazole-4-carboxamide], the figure is 7.62.

As a reminder, the pKd is −log10 of the Kd, conventionally taken in molar units. Low values mean a large Kd, high ones a small Kd.
